Results published in ChEMBL document CHEMBL5223082, “Alkyl-Aryl-Vancomycins: Multimodal Glycopeptides with Weak Dependence on the Bacterial Metabolic State” (J Med Chem, 2021).
Converted amounts (≈) assume the structure as drawn.

Key:
[1] = tested on: Staphylococcus aureus; assay: Antibacterial activity against Methicillin-resistant Staphylococcus aureus ATCC 33591 assessed as inhibition of bacterial growth incubated for 18 to 24 hrs by CLSI microbroth dilution method; type: functional; settings: time 18-24 hrs
[2] = tested on: Staphylococcus aureus; assay: Potency index, ratio of Vancomycin MIC to test compound MIC for antibacterial activity against Vancomycin-resistant Staphylococcus aureus 4; type: functional
[3] = tested on: Enterococcus; assay: Antibacterial activity against Vancomycin-resistant Enterococci ATCC 51575 assessed as inhibition of bacterial growth incubated for 18 to 24 hrs by CLSI microbroth dilution method; type: functional; settings: time 18-24 hrs
[4] = tested on: Staphylococcus aureus; assay: Antibacterial activity against Vancomycin-resistant Staphylococcus aureus 12 assessed as inhibition of bacterial growth incubated for 18 to 24 hrs by CLSI microbroth dilution method; type: functional; settings: time 18-24 hrs
[5] = tested on: Enterococcus; assay: Antibacterial activity against Vancomycin-resistant Enterococci NR30903 assessed as inhibition of bacterial growth incubated for 18 to 24 hrs by CLSI microbroth dilution method; type: functional; settings: time 18-24 hrs
[6] = tested on: Staphylococcus aureus; assay: Potency index, ratio of Vancomycin MIC to test compound MIC for antibacterial activity against Vancomycin-resistant Staphylococcus aureus 12; type: functional
[7] = tested on: Staphylococcus aureus; assay: Antibacterial activity against Vancomycin-resistant Staphylococcus aureus 4 assessed as inhibition of bacterial growth incubated for 18 to 24 hrs by CLSI microbroth dilution method; type: functional; settings: time 18-24 hrs
[8] = tested on: Enterococcus; assay: Potency index, ratio of Vancomycin MIC to test compound MIC for antibacterial activity against Vancomycin-resistant Enterococci ATCC 51559; type: functional
[9] = Induction of hemolysis in human erythrocytes incubated for 1 hr by microtiter plater reader analysis; type: toxicity, cell-based, Erythrocyte
[10] = tested on: Staphylococcus aureus; assay: Antibacterial activity against Vancomycin-resistant Staphylococcus aureus 1 assessed as inhibition of bacterial growth incubated for 18 to 24 hrs by CLSI microbroth dilution method; type: functional; settings: time 18-24 hrs
[11] = tested on: Enterococcus; assay: Potency index, ratio of Vancomycin MIC to test compound MIC for antibacterial activity against Vancomycin-resistant Enterococci NR30909; type: functional, NR 30909
[12] = tested on: Enterococcus; assay: Antibacterial activity against Vancomycin-resistant Enterococci NR30909 assessed as inhibition of bacterial growth incubated for 18 to 24 hrs by CLSI microbroth dilution method; type: functional; settings: time 18-24 hrs
[13] = tested on: Staphylococcus aureus; assay: Potency index, ratio of Vancomycin MIC to test compound MIC for antibacterial activity against Vancomycin-resistant Staphylococcus aureus 1; type: functional
[14] = tested on: Enterococcus; assay: Antibacterial activity against Vancomycin-resistant Enterococci ATCC 51559 assessed as inhibition of bacterial growth incubated for 18 to 24 hrs by CLSI microbroth dilution method; type: functional; settings: time 18-24 hrs
[15] = tested on: Enterococcus; assay: Potency index, ratio of Vancomycin MIC to test compound MIC for antibacterial activity against Vancomycin-resistant Enterococci ATCC 51575; type: functional
[16] = tested on: Enterococcus; assay: Potency index, ratio of Vancomycin MIC to test compound MIC for antibacterial activity against Vancomycin-resistant Enterococci NR30903; type: functional, NR 30903

Row | SMILES | MIC [1] [µM] | Ratio [2] | MIC [3] [µM] | MIC [4] [µM] | MIC [5] [µM] | Ratio [6] | MIC [7] [µM] | Ratio [8] | HC50 at 1 h [9] [µM] | MIC [10] [µM] | Ratio [11] | MIC [12] [µM] | Ratio [13] | MIC [14] [µM] | Ratio [15] | Ratio [16]
1 | CCCCCCCCCCCCNC(=O)C[N+](C)(C)CCCNC(=O)c1ccc(CN[C@@]2(C)C[C@H](O[C@H]3[C@H](Oc4c5cc6cc4Oc4ccc(cc4Cl)[C@@H](O)[C@@H](NC(=O)[C@@H](CC(C)C)NC)C(=O)N[C@@H](CC(N)=O)C(=O)N[C@H]6C(=O)N[C@H]4C(=O)N[C@H](C(=O)N[C@H](C(=O)O)c6cc(O)cc(O)c6-c6cc4ccc6O)[C@H](O)c4ccc(c(Cl)c4)O5)O[C@H](CO)[C@@H](O)[C@@H]3O)O[C@@H](C)[C@H]2O)cc1 | 1.8 | 780 | 1.8 | 0.9 | 0.9 | 780 | 0.9 | 780 | 72 | 0.9 | 780 | 0.9 | 780 | 1.8 | 780 | 780
2 | CCCCCCCCCCNC(=O)C[N+](C)(C)CCCNC(=O)c1ccc(C)cc1 |  |  | > 40 |  | > 40 |  |  |  |  |  |  | > 40 |  | > 40 |  | 
3 | CN[C@H](CC(C)C)C(=O)N[C@H]1C(=O)N[C@@H](CC(N)=O)C(=O)N[C@H]2C(=O)N[C@H]3C(=O)N[C@H](C(=O)N[C@H](C(=O)O)c4cc(O)cc(O)c4-c4cc3ccc4O)[C@H](O)c3ccc(c(Cl)c3)Oc3cc2cc(c3O[C@@H]2O[C@H](CO)[C@@H](O)[C@H](O)[C@H]2O[C@H]2C[C@](C)(NCc3ccc(-c4ccc(Cl)cc4)cc3)[C@H](O)[C@H](C)O2)Oc2ccc(cc2Cl)[C@H]1O | 0.5 (≈ 0.825 µg/mL) |  | 2.1 (≈ 3.46 µg/mL) | 4.2 (≈ 6.93 µg/mL) | 4.2 (≈ 6.93 µg/mL) |  | 2.1 (≈ 3.46 µg/mL) |  |  | 4.2 (≈ 6.93 µg/mL) |  | 4.2 (≈ 6.93 µg/mL) |  | 4.2 (≈ 6.93 µg/mL) |  | 
4 | CCCCCCCCCCNC(=O)c1ccc(CN[C@@]2(C)C[C@H](O[C@H]3[C@H](Oc4c5cc6cc4Oc4ccc(cc4Cl)[C@@H](O)[C@@H](NC(=O)[C@@H](CC(C)C)NC)C(=O)N[C@@H](CC(N)=O)C(=O)N[C@H]6C(=O)N[C@H]4C(=O)N[C@H](C(=O)N[C@H](C(=O)O)c6cc(O)cc(O)c6-c6cc4ccc6O)[C@H](O)c4ccc(c(Cl)c4)O5)O[C@H](CO)[C@@H](O)[C@@H]3O)O[C@@H](C)[C@H]2O)cc1 | 2 (≈ 3.45 µg/mL) | 390 | 0.2 (≈ 0.345 µg/mL) | 2 (≈ 3.45 µg/mL) | 2 (≈ 3.45 µg/mL) | 390 | 1 (≈ 1.72 µg/mL) | 670 | 62.5 | 2 (≈ 3.45 µg/mL) | 670 | 2 (≈ 3.45 µg/mL) | 390 | 2 (≈ 3.45 µg/mL) | 670 | 670
5 | CCCCCCCCCCCCCCNC(=O)c1ccc(CN[C@@]2(C)C[C@H](O[C@H]3[C@H](Oc4c5cc6cc4Oc4ccc(cc4Cl)[C@@H](O)[C@@H](NC(=O)[C@@H](CC(C)C)NC)C(=O)N[C@@H](CC(N)=O)C(=O)N[C@H]6C(=O)N[C@H]4C(=O)N[C@H](C(=O)N[C@H](C(=O)O)c6cc(O)cc(O)c6-c6cc4ccc6O)[C@H](O)c4ccc(c(Cl)c4)O5)O[C@H](CO)[C@@H](O)[C@@H]3O)O[C@@H](C)[C@H]2O)cc1 | 4 (≈ 7.12 µg/mL) |  | 4 (≈ 7.12 µg/mL) | 4 (≈ 7.12 µg/mL) | 2 (≈ 3.56 µg/mL) |  | 4 (≈ 7.12 µg/mL) |  | 27.5 | 8 (≈ 14.2 µg/mL) |  | 4 (≈ 7.12 µg/mL) |  | 4 (≈ 7.12 µg/mL) |  | 
